Reference: US20220177511A1, “SERIES OF HALOGENATED TETRACYCLIC TRITERPENE DERIVATIVES AND THEIR PREPARATION AND APPLICATION” (SHANGHAI KING-X BIOTECH CO., LTD, priority 2019, published 2022)
≈ marks a conversion by molar mass, not a printed value. Where two headings read alike, the source gives them in different places.

Assay: Solubility test in water and FaSSIF
Format: physicochemical
Details: 37° C., up to 24 hours
[1] = thermodynamic from solid, FaSSIF (pH 6.5), read-out: Solubility
[2] = thermodynamic from solid, Water, read-out: Solubility

Br.CC(C)(O)C1CCC(C)(C2C(O)CC3(C)C4CC(OC(=O)CNC(=O)C(N)CS)C5C(C)(C)C(F)(F)CCC56CC46CCC23C)O1 [Compound 2-32, (R)-1-((2-(((2aR,3R,4S,5aS,5bS,7S,7aR,11aR,12aS)-9,9-difluoro-4-hydroxy-3-((2S,5S)-5-(2-hydroxypropan-2-yl)-2-methyltetrahydrofuran-2-yl)-2a,5a,8,8-tetramethyltetradecahydro-1H,12H-cyclopenta[a]cyclopropa[e]phenanthren-7-yl)oxy)-2-oxoethyl)amino)-3-mercapto-1-oxopropan-2-aminium bromide]
Solubility (FaSSIF (pH 6.5)): 4960 µg/mL

CC(C)(O)[C@@H]1CC[C@@](C)([C@H]2[C@@H](O)C[C@@]3(C)[C@@H]4C[C@H](OC(=O)COCCOCCOCCOCCOCCO)[C@H]5C(C)(C)C(F)(F)CC[C@@]56C[C@@]46CC[C@]23C)O1 [Compound 2-14, (2aR,3R,4S,5aS,5bS,7S,7aR,11aR,12aS)-9,9-difluoro-4-hydroxy-3-((2S,5S)-5-(2-hydroxypropan-2-yl)-2-methyltetrahydrofuran-2-yl)-2a,5a,8,8-tetramethyltetradecahydro-1H,12H-cyclopenta[a]cyclopropa[e]phenanthren-7-yl-17-hydroxy-3,6,9,12,15-pentaoxaheptadecanoate]
Solubility [1]: 2310 µg/mL (≈ 2930 µM)
Solubility [2]: 1230 µg/mL (≈ 1560 µM)

CC(C)(O)[C@@H]1CC[C@@](C)([C@H]2[C@@H](O)C[C@@]3(C)[C@@H]4C[C@H](OC(=O)[C@@H](N)CS)[C@H]5C(C)(C)C(F)(F)CC[C@@]56C[C@@]46CC[C@]23C)O1.Cl [Compound 2-25, (R)-1-(((2aR,3R,4S,5aS,5bS,7S,7aR,11aR,12aS)-9,9-difluoro-4-hydroxy-3-((2S,5S)-5-(2-hydroxypropan-2-yl)-2-methyltetrahydrofuran-2-yl)-2a,5a,8,8-tetramethyltetradecahydro-1H,12H-cyclopenta[a]cyclopropa[e]phenanthren-7-yl)oxy)-3-mercapto-1-oxopropan-2-aminium Chloride]
Solubility (FaSSIF (pH 6.5)): 3350 µg/mL
Solubility (Water): 1020 µg/mL

CC(C)(O)[C@@H]1CC[C@@](C)([C@H]2[C@@H](O)C[C@@]3(C)[C@@H]4C[C@H](OC(=O)[C@@H](N)CC(=O)O)[C@H]5C(C)(C)C(F)(F)CC[C@@]56C[C@@]46CC[C@]23C)O1 [Compound 2-24, (S)-3-carboxy-1-(((2aR,3R,4S,5aS,5bS,7S,7aR,11aR,12aS)-9,9-difluoro-4-hydroxy-3-((2S,5S)-5-(2-hydroxypropan-2-yl)-2-methyltetrahydrofuran-2-yl)-2a,5a,8,8-tetramethyltetradecahydro-1H,12H-cyclopenta[a]cyclopropa[e]phenanthren-7-yl)oxy)-1-oxopropan-2-aminium 2,2,2-trifluoroacetate]
Solubility [1]: 5450 µg/mL (≈ 8710 µM)
Solubility [2]: 1500 µg/mL (≈ 2400 µM)

C[C@@H](N)C(=O)N[C@H](C)C(=O)O[C@H]1C[C@@H]2[C@]3(CC[C@]4(C)[C@@H]([C@]5(C)CC[C@@H](C(C)(C)O)O5)[C@@H](O)C[C@@]24C)C[C@@]32CCC(F)(F)C(C)(C)[C@H]12.I [Compound 2-35, (R)-1-(((R)-1-(((2aR,3R,4S,5aS,5bS,7S,7aR,11aR,12aS)-9,9-difluoro-4-hydroxy-3-((2 S,5S)-5-(2-hydroxypropan-2-yl)-2-methyltetrahydrofuran-2-yl)-2a,5a,8,8-tetramethyltetradecahydro-1H,12H-cyclopenta[a]cyclopropa[e]phenanthren-7-yl)oxy)-1-oxopropan-2-yl)amino)-1-oxopropan-2-aminium iodide]
Solubility (FaSSIF (pH 6.5)): 3140 µg/mL
Solubility (Water): 1350 µg/mL

CC(C)(O)[C@@H]1CC[C@@](C)([C@H]2[C@@H](O)C[C@@]3(C)[C@@H]4C[C@H](OC(=O)[C@@H](N)Cc5c[nH]cn5)[C@H]5C(C)(C)C(F)(F)CC[C@@]56C[C@@]46CC[C@]23C)O1.O=S(=O)(O)O [Compound 2-22, (2aR,3R,4S,5aS,5bS,7S,7aR,11aR,12aS)-9,9-difluoro-4-hydroxy-3-((2S,5S)-5-(2-hydroxypropan-2-yl)-2-methyltetrahydrofuran-2-yl)-2a,5a,8,8-tetramethyltetradecahydro-1H,12H-cyclopenta[a]cyclopropa[e]phenanthren-7-yl-L-histidinate Sulfate]
Solubility (FaSSIF (pH 6.5)): 1250 µg/mL
Solubility (Water): 700 µg/mL

CC(NC(=O)C(N)CC(N)=O)C(=O)OC1CC2C3(C)CC(O)C(C4(C)CCC(C(C)(C)O)O4)C3(C)CCC23CC32CCC(F)(F)C(C)(C)C12.Cl [Compound 2-34, (S)-4-amino-1-(((S)-1-(((2aR,3R,4S,5aS,5bS,7S,7aR,11aR,12aS)-9,9-difluoro-4-hydroxy-3-((2S,5S)-5-(2-hydroxypropan-2-yl)-2-methyltetrahydrofuran-2-yl)-2a,5a,8,8-tetramethyltetradecahydro-1H,12H-cyclopenta[a]cyclopropa[e]phenanthren-7-yl)oxy)-1-oxopropan-2-yl)amino)-1,4-di oxobutan-2-aminium chloride]
Solubility (FaSSIF (pH 6.5)): 3200 µg/mL
Solubility (Water): 1180 µg/mL

CC(C)(O)[C@@H]1CC[C@@](C)([C@H]2[C@@H](O)C[C@@]3(C)[C@@H]4C[C@H](OC(=O)[C@@H](N)CCCNC(=N)N)[C@H]5C(C)(C)C(F)(F)CC[C@@]56C[C@@]46CC[C@]23C)O1.Cl.Cl [Compound 2-23, 1-((S)-4-ammonio-5-(((2aR,3R,4S,5aS,5bS,7S,7aR,11aR,12aS)-9,9-difluoro-4-hydroxy-3-((2S,5S)-5-(2-hydroxypropan-2-yl)-2-methyltetrahydrofuran-2-yl)-2a,5a,8,8-tetramethyltetradecahydro-1H,12H-cyclopenta[a]cyclopropa[e]phenanthren-7-yl)oxy)-5-oxopentyl)guanidinium Chloride]
Solubility (FaSSIF (pH 6.5)): 6600 µg/mL
Solubility (Water): 2300 µg/mL

CC(C)(O)[C@@H]1CC[C@@](C)([C@H]2[C@@H](O)C[C@@]3(C)[C@@H]4C[C@H](OP(=O)(O)O)[C@H]5C(C)(C)C(F)(F)CC[C@@]56C[C@@]46CC[C@]23C)O1 [Compound 11, (2aR,3R,4S,5aS,5bS,7S,7aR,11aR,12aS)-9,9-difluoro-4-hydroxy-3-((2S,5S)-5-(2-hydroxypropan-2-yl)-2-methyltetrahydrofuran-2-yl)-2a,5a,8,8-tetramethyltetradecahydro-1H,12H-cyclopenta[a]cyclopropa[e]phenanthren-7-yl dihydrogen phosphate]
Solubility [1]: 3200 µg/mL
Solubility [2]: 790 µg/mL

CC(C)(O)[C@@H]1CC[C@@](C)([C@H]2[C@@H](O)C[C@@]3(C)[C@@H]4C[C@H](OC(=O)COCCOCCO)[C@H]5C(C)(C)C(F)(F)CC[C@@]56C[C@@]46CC[C@]23C)O1 [Compound 2-12, (2aR,3R,4S,5aS,5bS,7S,7aR,11aR,12aS)-9,9-difluoro-4-hydroxy-3-((2S,5S)-5-(2-hydroxypropan-2-yl)-2-methyltetrahydrofuran-2-yl)-2a,5a,8,8-tetramethyltetradecahydro-1H,12H-cyclopenta[a]cyclopropa[e]phenanthren-7-yl-2-(2-(2-hydroxyethoxy)ethoxy) Acetate]
Solubility [1]: 1110 µg/mL
Solubility [2]: 680 µg/mL

Br.CC(C)(O)[C@@H]1CC[C@@](C)([C@H]2[C@@H](O)C[C@@]3(C)[C@@H]4C[C@H](OC(=O)[C@@H](N)CC(N)=O)[C@H]5C(C)(C)C(F)(F)CC[C@@]56C[C@@]46CC[C@]23C)O1 [Compound 2-21, (S)-4-amino-1-(((2aR,3R,4S,5aS,5bS,7S,7aR,11aR,12aS)-9,9-difluoro-4-hydroxy-3-((2S,5S)-5-(2-hydroxypropan-2-yl)-2-methyltetrahydrofuran-2-yl)-2a,5a,8,8-tetramethyltetradecahydro-1H,12H-cyclopenta[a]cyclopropa[e]phenanthren-7-yl)oxy)-1,4-dioxobutan-2-aminium Bromide]
Solubility (FaSSIF (pH 6.5)): 3500 µg/mL
Solubility (Water): 900 µg/mL

Br.CN(CC(=O)O[C@H]1C[C@@H]2[C@]3(CC[C@]4(C)[C@@H]([C@]5(C)CC[C@@H](C(C)(C)O)O5)[C@@H](O)C[C@@]24C)C[C@@]32CCC(F)(F)C(C)(C)[C@H]12)C(=O)[C@H](N)CC(=O)O [Compound 2-33, (R)-3-carboxy-1-((2-(((2aR,3R,4S,5aS,5bS,7S,7aR,11aR,12aS)-9,9-difluoro-4-hydroxy-3-((2S,5S)-5-(2-hydroxypropan-2-yl)-2-methyltetrahydrofuran-2-yl)-2a,5a,8,8-tetramethyltetradecahydro-1H,12H-cyclopenta[a]cyclopropa[e]phenanthren-7-yl)oxy)-2-oxoethyl)(methyl)amino)-1-oxopropan-2-aminium bromide]
Solubility (FaSSIF (pH 6.5)): 6800 µg/mL
Solubility (Water): 2100 µg/mL

CC(C)(O)[C@@H]1CC[C@@](C)([C@H]2[C@@H](O)C[C@@]3(C)[C@@H]4C[C@H](OC(=O)COCCOCCOCCO)[C@H]5C(C)(C)C(F)(F)CC[C@@]56C[C@@]46CC[C@]23C)O1 [Compound 2-13, (2aR,3R,4S,5aS,5bS,7S,7aR,11aR,12aS)-9,9-difluoro-4-hydroxy-3-((2S,5S)-5-(2-hydroxypropan-2-yl)-2-methyltetrahydrofuran-2-yl)-2a,5a,8,8-tetramethyltetradecahydro-1H,12H-cyclopenta[a]cyclopropa[e]phenanthren-7-yl-2-(2-(2-(2-hydroxyethoxy)ethoxy)ethoxy)acetate]
Solubility [1]: 1150 µg/mL (≈ 1640 µM)
Solubility [2]: 850 µg/mL (≈ 1210 µM)

CC(C)(O)C1CCC(C)(C2C(O)CC3(C)C4CC(OC(=O)CNCCNCCN)C5C(C)(C)C(F)(F)CCC56CC46CCC23C)O1.O=[N+]([O-])O [Compound 2-9, 2-((2-((2-(((2aR,3R,4S,5aS,5bS,7S,7aR,11aR,12aS)-9,9-difluoro-4-hydroxy-3-((2S,5S)-5-(2-hydroxypropan-2-yl)-2-methyltetrahydrofuran-2-yl)-2a,5a,8,8-tetramethyltetradecahydro-1H,12H-cyclopenta[a]cyclopropa[e]phenanthren-7-yl)oxy)-2-oxoethyl)amino)ethyl)amino)ethan-1-aminium Nitrate]
Solubility (FaSSIF (pH 6.5)): 4520 µg/mL
Solubility (Water): 2110 µg/mL
